In brackets after ≈: the same amount, converted by molar mass. Where two headings read alike, the source gives them in different places. No end group written: not given here.
Legend:
in vitro [1] = format: cell-based, human; conditions: human, human red blood cells
Description: This hemolytic assay is based upon that presented in Journal of Peptide Research 53: 82-90 (1999). […] All procedures were performed according to safety protocols pertaining to the handling and disposal of human body fluids.
Red blood cells (RBCs) were washed three times with PBS (35 mM phosphate buffer 0.15 M NaCl, pH 7.0). RBCs suspended in PBS (0.4% (v/v); about 10 ml per 15 peptides) were prepared. Suspensions (100 μl) were aliquoted to each sample and control tube. Serially diluted peptide solutions (100 μl) were pipetted into the sample tubes. Negative control tubes contained 100 μl PBS; positive control tubes contained 100 μl 1% Triton-X100 detergent. All tubes were incubated for 1 hour at 37° C. The tubes were removed from the incubator and centrifuged at 1000 g for 5 minutes. Supernatant (100 μl) was pipetted to a 96-well polyvinyl chloride plate. The absorbance at 414 nm (A414) was measured, and used to calculate the percent hemolysis according to the following formula. [formula]

in vitro [2] = conditions: human, WI38 normal lung fibroblast cells
WI38 = conditions: MTT, 24 hours with peptide; for WI38 LD50: normal fibroblast line
PC3 = assay: Anti-cancer assay, MTT, LD50; format: cell-based; conditions: 24 hours with peptide, prostate adenocarcinoma
Source text: (§1) Numbers are LD50 values (μg/mL).

HeLaS3 = assay: Anti-cancer assay, MTT, LD50; format: cell-based; conditions: 24 hours with peptide, cervical carcinoma
Source text: as §1

BMKC = assay: Anti-cancer assay, MTT, LD50; format: cell-based; conditions: BMKC cloned melanoma line, 24 hours with peptide
Source text: as §1

H1299 = assay: Anti-cancer assay, MTT, LD50; format: cell-based; conditions: 24 hours with peptide, lung large cell carcinoma
Source text: as §1

SW480 = assay: Anti-cancer assay, MTT, LD50; format: cell-based; conditions: SW480 colon adenocarcinoma line, 24 hours with peptide
Source text: as §1

MCF7 = assay: Anti-cancer assay, MTT, LD50; format: cell-based; conditions: MCF7 breast adenocarcinoma line, MTT, 24 hours with peptide
Source text: as §1

[3] = pH 7, Table 26, valine substitution, read-out: Hemolysis RBC LD50
[4] = WI-38 LD50, Table 26, valine substitution
[5] = LD50 WI38, WI38 normal lung fibroblast line, MTT, 24 hours with peptide
[6] = pH 7, hemolytic assay, concentration at 50% hemolysis, 1 hour at 37° C., read-out: LD50

| Compound | WI38 LD50 (WI38) | CC50 at 24 h (in vitro [2]; [5]) [µg/mL] | HeLaS3 LD50 (HeLaS3) | LD50 BMKC (BMKC) | H1299 LD50 (H1299) | LD50 SW480 (SW480) | LD50 MCF7 (MCF7) | also measured |
| --- | --- | --- | --- | --- | --- | --- | --- | --- |
| VAKKFAKKFKKFAKKFAKFAFAF-NH2 [compound 503] | – | – | – | – | – | – | – | HC50 at 1 h (in vitro [1]; [3]): 20 µg/mL; CC50 at 24 h (in vitro [2]; [4]): 150 µg/mL |
| VAKKLAKLAKKLLAL-NH2 [compound 505] | – | – | – | – | – | – | – | HC50 at 1 h (in vitro [1]; [3]): 620 µg/mL; CC50 at 24 h (in vitro [2]; [4]): 85 µg/mL |
| VALALKALKKLAKKLKKLAKKAL-NH2 [compound 509] | – | – | – | – | – | – | – | HC50 at 1 h (in vitro [1]; [3]): 40 µg/mL; CC50 at 24 h (in vitro [2]; [4]): 95 µg/mL |
| KLAKKLAKLAKLAKAL-NH2 [P159, reference compound] | 82 µg/mL | 82 | 275 µg/mL | 140 µg/mL | 74 µg/mL | 140 µg/mL | 61 µg/mL | PC3 LD50 (PC3): 145 µg/mL |
| FAKKFAKKFKKFAKKFAKFAFAF-NH2 [compound 301] | – | – | – | – | – | – | – | HC50 at 1 h (in vitro [1]; [3]): 10 µg/mL |
| VALALKALKKALKKLKKALKKAL-NH2 [P30] | 93 µg/mL | – | – | – | – | – | – | – |
| FALALKALKKA-NH2 [Flak 96H] | > (> indicates greater than 1000) | – | > (> indicates greater than 1000) | > (> indicates greater than 1000) | > (> indicates greater than 1000) | > (> indicates greater than 1000) | > (> indicates greater than 1000) | LD50 WI38 (WI38; WI38 normal lung fibroblast line): > (> indicates greater than 1000); PC3 LD50 (PC3): > (> indicates greater than 1000) |
| FALLKALLKKAL-NH2 [Flak 961] | – | – | 380 µg/mL | – | 240 µg/mL | – | – | CC50 at 24 h (in vitro [2]; WI38 LD50, MTT, 24 hours with peptide, normal fibroblast line): 270 µg/mL; PC3 LD50 (PC3): 120 µg/mL |
| VAKKLAKLAKKLLAL-NH2 [FLAK43 AM V] | – | 85 | – | – | – | – | 86 µg/mL | – |
| GIGKFLHSAKKFGKAFVGGIMNS-NH2 [P16, reference compound] | – | – | – | – | – | – | – | HC50 at 1 h (in vitro [1]; [6]): 550 µg/mL |
| MPKWKVFKKIEKVGRNIRNGIVKAGPAIAVLGEAKALG-OH [SB37COOH] | 130 µg/mL | 130 | 150 µg/mL | 120 µg/mL | 220 µg/mL | 82 µg/mL | 175 µg/mL | – |
| VAKKLAKLAKKLLAL-NH2 [P505, VAKKLAKLAKKLLAL-NH2] | – | – | – | – | – | – | – | HC50 at 1 h (in vitro [1]; [6]): 620 µg/mL |
| CC[C@H](C)[C@H](NC(=O)CN)C(=O)NCC(=O)N[C@@H](C)C(=O)N[C@H](C(=O)N[C@@H](CC(C)C)C(=O)N[C@@H](CCCCN)C(=O)N[C@H](C(=O)N[C@@H](CC(C)C)C(=O)N[C@H](C(=O)N[C@H](C(=O)NCC(=O)N[C@@H](CC(C)C)C(=O)N1CCC[C@H]1C(=O)N[C@@H](C)C(=O)N[C@@H](CC(C)C)C(=O)N[C@H](C(=O)N[C@@H](CO)C(=O)N[C@@H](Cc1c[nH]c2ccccc12)C(=O)N[C@H](C(=O)N[C@@H](CCCCN)C(=O)N[C@@H](CCCNC(=N)N)C(=O)N[C@@H](CCCCN)C(=O)N[C@@H](CCCNC(=N)N)C(=O)N[C@@H](CCC(N)=O)C(=O)N[C@@H](CCC(N)=O)C(N)=O)[C@@H](C)CC)[C@@H](C)CC)[C@@H](C)O)[C@@H](C)O)C(C)C)C(C)C [MELITTIIN] | 16 µg/mL | 16 (≈ 5.62 µM) | 35 µg/mL | 18 µg/mL | 25 µg/mL | 23 µg/mL | 9 µg/mL | PC3 LD50 (PC3): 13 µg/mL |
| FAKKLAKKLKKLAKKLAK-NH2 [Shiva 10(1-18)AM] | – | 101 | – | 66 µg/mL | – | 63 µg/mL | 45 µg/mL | – |
| VALALKALKKALKKLKKALKKAL-OH [HECATE AC V] | – | 190 | – | – | – | – | 160 µg/mL | – |
| VAKALKALLKALKAL-NH2 [FLAK 17 CV] | – | 26 | – | – | – | – | 23 µg/mL | – |
